“And” between values parts separate entries of the source, which are not always exact repeats. Equal values may be shown once. Toxic doses and inconclusive results are not listed.
System: BDF1 mice, P388 leukemia ip, median survival T/C
Experiment: NCI In Vivo Anticancer Drug Screen. Data for tumor model P388 Leukemia (intraperitoneal) in B6D2F1 (BDF1) mice
Conditions: endpoint: median survival time, higher = longer survival
Method in brief: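 In tumour-bearing mice, survival after compound treatment is set against the vehicle group and given as a quotient.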

[1] = dose: 25.0 mg/kg/injection, schedule: Q01DX009 (ip), vehicle: Klucel (hydroxypropylcellulose) (HPC)
[2] = dose: 50.0 mg/kg/injection, schedule: Q01DX009 (ip), vehicle: Klucel (hydroxypropylcellulose) (HPC)
[3] = dose: 100.0 mg/kg/injection, schedule: Q04DX003 (ip), vehicle: Klucel (hydroxypropylcellulose) (HPC)
[4] = dose: 200.0 mg/kg/injection, schedule: Q04DX003 (ip), vehicle: Klucel (hydroxypropylcellulose) (HPC)
[5] = dose: 400.0 mg/kg/injection, schedule: Q04DX003 (ip), vehicle: Klucel (hydroxypropylcellulose) (HPC)
[6] = dose: 200.0 mg/kg/injection, schedule: Q04DX003 (ip), vehicle: saline
[7] = dose: 12.5 mg/kg/injection, schedule: Q01DX001 (ip), vehicle: saline with Tween-80
[8] = dose: 25.0 mg/kg/injection, schedule: Q01DX001 (ip), vehicle: saline with Tween-80
[9] = dose: 50.0 mg/kg/injection, schedule: Q01DX001 (ip), vehicle: saline with Tween-80
[10] = dose: 12.5 mg/kg/injection, schedule: Q01DX009 (ip), vehicle: saline
[11] = dose: 25.0 mg/kg/injection, schedule: Q01DX009 (ip), vehicle: saline
[12] = dose: 50.0 mg/kg/injection, schedule: Q04DX003 (ip), vehicle: saline
[13] = dose: 100.0 mg/kg/injection, schedule: Q01DX009 (ip), vehicle: Klucel (hydroxypropylcellulose) (HPC)
[14] = dose: 200.0 mg/kg/injection, schedule: Q01DX009 (ip), vehicle: Klucel (hydroxypropylcellulose) (HPC)
[15] = dose: 400.0 mg/kg/injection, schedule: Q01DX009 (ip), vehicle: Klucel (hydroxypropylcellulose) (HPC)
[16] = dose: 25.0 mg/kg/injection, schedule: Q04DX003 (ip), vehicle: saline with Tween-80
[17] = dose: 50.0 mg/kg/injection, schedule: Q01DX009 (ip), vehicle: saline with Tween-80
[18] = dose: 100.0 mg/kg/injection, schedule: Q01DX009 (ip), vehicle: saline with Tween-80
[19] = dose: 200.0 mg/kg/injection, schedule: Q01DX009 (ip), vehicle: saline with Tween-80
[20] = dose: 100.0 mg/kg/injection, schedule: Q01DX001 (ip), vehicle: saline with Tween-80
[21] = dose: 400.0 mg/kg/injection, schedule: Q01DX001 (ip), vehicle: saline with Tween-80
[22] = dose: 50.0 mg/kg/injection, schedule: Q01DX009 (ip), vehicle: saline

## COc1cc(N(CCCl)CCCl)c(OC)cc1/C=N/NC(=O)CC(N)C(=O)O (centres undefined)
dose: 16.0 mg/kg/injection, schedule: Q01DX009 (ip), vehicle: Klucel (hydroxypropylcellulose) (HPC)
  T/C: 153 % of control
[1]
  T/C: 150 % of control and 179 % of control
dose: 35.0 mg/kg/injection, schedule: Q01DX009 (ip), vehicle: Klucel (hydroxypropylcellulose) (HPC)
  T/C: 153 % of control
[2]
  T/C: 177 % of control
dose: 65.0 mg/kg/injection, schedule: Q04DX003 (ip), vehicle: Klucel (hydroxypropylcellulose) (HPC)
  T/C: 181 % of control
[3]
  T/C: 235 % of control
dose: 132.0 mg/kg/injection, schedule: Q04DX003 (ip), vehicle: Klucel (hydroxypropylcellulose) (HPC)
  T/C: 240 % of control and 247 % of control
[4]
  T/C: 265 % of control and 272 % of control and 180 % of control
[5]
  T/C: 100 % of control

## [Br][Co][Br].[NH-]CC[NH-].[NH-]CC[NH-]
[6]
  T/C: 109 % of control

## COC1(C)CCC(C=O)C(C#N)(C#N)C1(C#N)C#N (centres undefined)
[7]
  T/C: 98 % of control
[8]
  T/C: 100 % of control
[9]
  T/C: 104 % of control

## CC(C)(C)C1=C[P+](c2ccccc2)(c2ccccc2)C(C(C)(C)C)=C[P+]1(c1ccccc1)c1ccccc1
[10]
  T/C: 96 % of control
dose: 12.5 mg/kg/injection, schedule: Q04DX003 (ip), vehicle: saline
  T/C: 96 % of control
[11]
  T/C: 107 % of control
dose: 25.0 mg/kg/injection, schedule: Q04DX003 (ip), vehicle: saline
  T/C: 100 % of control
[12]
  T/C: 96 % of control

## COC(=O)C1C(O)C(C)C(O)C(C)/C=C\C=C(C)C(=O)Nc2c(C)c(OC(C)=O)c3c(c2O)C(=O)C(C)=C2OCOC(=C23)C(C)=CC(C)(O)C(O)C(C)C1O (centres undefined)
[13]
  T/C: 115 % of control
[14]
  T/C: 108 % of control and 115 % of control
[15]
  T/C: 106 % of control

## Cc1noc2nc[nH]c(=O)c12
dose: 100.0 mg/kg/injection, schedule: Q04DX002 (ip), vehicle: saline with Tween-80
  T/C: 107 % of control
dose: 200.0 mg/kg/injection, schedule: Q04DX002 (ip), vehicle: saline with Tween-80
  T/C: 106 % of control
dose: 400.0 mg/kg/injection, schedule: Q04DX002 (ip), vehicle: saline with Tween-80
  T/C: 94 % of control

## CC1(C)CC(=O)C(C)(C)C(=O)C1
dose: 3.0 mg/kg/injection, schedule: Q04DX003 (ip), vehicle: saline with Tween-80
  T/C: 95 % of control
dose: 6.0 mg/kg/injection, schedule: Q04DX003 (ip), vehicle: saline with Tween-80
  T/C: 108 % of control
dose: 6.25 mg/kg/injection, schedule: Q01DX009 (ip), vehicle: saline with Tween-80
  T/C: 100 % of control
dose: 12.0 mg/kg/injection, schedule: Q04DX003 (ip), vehicle: saline with Tween-80
  T/C: 100 % of control
dose: 12.5 mg/kg/injection, schedule: Q01DX009 (ip), vehicle: saline with Tween-80
  T/C: 104 % of control
[16]
  T/C: 95 % of control

## CC(Oc1cc(Cl)ccc1Cl)C(=O)O (centres undefined)
[13]
  T/C: 90 % of control
[3]
  T/C: 100 % of control
[14]
  T/C: 100 % of control
[4]
  T/C: 104 % of control
[15]
  T/C: 113 % of control
[5]
  T/C: 108 % of control

## CC1CNC2C(C)C3C(CC4C5CCC6CC(N)CCC6(C)C5CCC43C)OC2(O)C1 (centres undefined)
dose: 12.5 mg/kg/injection, schedule: Q04DX003 (ip), vehicle: saline with Tween-80
  T/C: 112 % of control
[16]
  T/C: 100 % of control
dose: 50.0 mg/kg/injection, schedule: Q04DX003 (ip), vehicle: saline with Tween-80
  T/C: 91 % of control

## Clc1ccc(-c2ccccc2)cc1Cl
[17]
  T/C: 115 % of control
[18]
  T/C: 114 % of control
[19]
  T/C: 118 % of control

## CN(Cc1ccccc1)c1ccc(/C=C/c2ccnc3ccccc23)cc1
[7]
  T/C: 93 % of control
[8]
  T/C: 89 % of control
[9]
  T/C: 88 % of control
[20]
  T/C: 93 % of control
[21]
  T/C: 94 % of control

## Clc1ccc(-c2nc(-c3ccccc3)c(-c3ccccc3)o2)cc1
[17]
  T/C: 100 % of control
[18]
  T/C: 111 % of control
[19]
  T/C: 116 % of control

## CCN(C(=O)Nc1ccccc1Cl)c1ccccc1
[20]
  T/C: 95 % of control
dose: 200.0 mg/kg/injection, schedule: Q01DX001 (ip), vehicle: saline with Tween-80
  T/C: 100 % of control
[21]
  T/C: 100 % of control

## C/C(N=Nc1ccccc1)=N\Nc1cccc(C(F)(F)F)c1
[2]
  T/C: 100 % of control
[13]
  T/C: 105 % of control
[3]
  T/C: 104 % of control
[14]
  T/C: 100 % of control
[4]
  T/C: 104 % of control
[5]
  T/C: 108 % of control

## C/C(=C\c1ccccc1)[N+](=O)[O-]
dose: 4.0 mg/kg/injection, schedule: Q01DX009 (ip), vehicle: Klucel (hydroxypropylcellulose) (HPC)
  T/C: 101 % of control
dose: 6.2 mg/kg/injection, schedule: Q01DX009 (ip), vehicle: saline
  T/C: 90 % of control
dose: 6.25 mg/kg/injection, schedule: Q01DX009 (ip), vehicle: saline
  T/C: 100 % of control
dose: 8.0 mg/kg/injection, schedule: Q01DX009 (ip), vehicle: Klucel (hydroxypropylcellulose) (HPC)
  T/C: 108 % of control
[10]
  T/C: 90 % of control and 105 % of control
[1]
  T/C: 100 % of control
[11]
  T/C: 90 % of control and 108 % of control and 119 % of control
dose: 25.0 mg/kg/injection, schedule: Q04DX003 (ip), vehicle: Klucel (hydroxypropylcellulose) (HPC)
  T/C: 113 % of control
dose: 30.0 mg/kg/injection, schedule: Q01DX009 (ip), vehicle: Klucel (hydroxypropylcellulose) (HPC)
  T/C: 118 % of control
dose: 44.0 mg/kg/injection, schedule: Q01DX009 (ip), vehicle: Klucel (hydroxypropylcellulose) (HPC)
  T/C: 109 % of control
[2]
  T/C: 87 % of control
[22]
  T/C: 115 % of control and 123 % of control
dose: 50.0 mg/kg/injection, schedule: Q04DX003 (ip), vehicle: Klucel (hydroxypropylcellulose) (HPC)
  T/C: 113 % of control
[12]
  T/C: 100 % of control
dose: 67.0 mg/kg/injection, schedule: Q01DX009 (ip), vehicle: Klucel (hydroxypropylcellulose) (HPC)
  T/C: 95 % of control
dose: 100.0 mg/kg/injection, schedule: Q04DX003 (ip), vehicle: saline
  T/C: 109 % of control
[6]
  T/C: 100 % of control
dose: 400.0 mg/kg/injection, schedule: Q04DX003 (ip), vehicle: saline
  T/C: 109 % of control

## CCCCCCCCCCC[CH2][Hg][CH2]CCCCCCCCCCC
[3]
  T/C: 91 % of control
[4]
  T/C: 100 % of control

## CC(N)C(=O)NCCN(C)C (centres undefined)
dose: 50.0 mg/kg/injection, schedule: Q01DX005 (ip), vehicle: saline
  T/C: 95 % of control
dose: 100.0 mg/kg/injection, schedule: Q01DX005 (ip), vehicle: saline
  T/C: 107 % of control
dose: 200.0 mg/kg/injection, schedule: Q01DX005 (ip), vehicle: saline
  T/C: 99 % of control

## Nc1nc(N)c2cc(S(=O)(=O)c3ccccc3)ccc2n1
[17]
  T/C: 92 % of control

## COC1(c2cccs2)OC1(C)C (centres undefined)
[18]
  T/C: 95 % of control
dose: 100.0 mg/kg/injection, schedule: Q04DX003 (ip), vehicle: saline with Tween-80
  T/C: 100 % of control
[19]
  T/C: 95 % of control
dose: 200.0 mg/kg/injection, schedule: Q04DX003 (ip), vehicle: saline with Tween-80
  T/C: 91 % of control
dose: 400.0 mg/kg/injection, schedule: Q01DX009 (ip), vehicle: saline with Tween-80
  T/C: 95 % of control
dose: 400.0 mg/kg/injection, schedule: Q04DX003 (ip), vehicle: saline with Tween-80
  T/C: 104 % of control

## CC(C)CCNc1ncnc2c1cnn2C
dose: 25.0 mg/kg/injection, schedule: Q01DX009 (ip), vehicle: saline with Tween-80
  T/C: 100 % of control
[17]
  T/C: 100 % of control
[18]
  T/C: 109 % of control

## CCOC(=O)CNC(=O)N(CC)C12CC3CC(CC(C3)C1)C2
[13]
  T/C: 94 % of control
dose: 130.0 mg/kg/injection, schedule: Q01DX009 (ip), vehicle: Klucel (hydroxypropylcellulose) (HPC)
  T/C: 111 % of control
[14]
  T/C: 100 % of control
dose: 300.0 mg/kg/injection, schedule: Q01DX009 (ip), vehicle: Klucel (hydroxypropylcellulose) (HPC)
  T/C: 109 % of control
[15]
  T/C: 122 % of control

## C=CCC(CC)C(=O)O (centres undefined)
[22]
  T/C: 100 % of control
dose: 100.0 mg/kg/injection, schedule: Q01DX009 (ip), vehicle: saline
  T/C: 104 % of control
